Experiments:
[1] = biological target: T1, TYK2 JH2 (Homo sapiens, UniProt P29597); experiment: TYK2 JH2 binding assay (KINOMEscan KdELECT competitive binding); conditions: TYK2 JH2 domain, KINOMEscan KdELECT (Assay A); read-out: Biochemical TYK2_DiscoverX_JH2_BND_Kd
T1 construct: purchased DiscoverX (KINOMEscan KdELECT service); host or cells: E. coli BL21-derived (T7 phage display) or HEK-293
Outline: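 Test compounds were titrated in 11 three-fold steps against JH2 fragment captured on ligand-loaded magnetic beads, with 1 h incubation at room temperature and DMSO at 0.9%. Eluted kinase was quantified by qPCR, and Kd was fitted from the dose series.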

[2] = tested on: JAK1/TYK2 pSTAT5 (Tyr694/699) in THP-1 cell line; experiment: IFNa-stimulated JAK1/TYK2 pSTAT5 (Tyr694/699) inhibition cellular assay, AlphaLISA; format: cell-based; conditions: Homo sapiens; THP-1 cells, IFNa-stimulated, AlphaLISA (Assay B); read-out: Cellular_THP1_IFNa-pSTATS_TYK2
Outline: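 Compound dilutions were dispensed first, and HBSS-suspended THP-1 cells were added on top (final top concentration 10000 nM, 6-fold series). After 1 h at 37 °C, IFNa (100 ng/mL as added) was applied for 30 min. Cells were then lysed and pSTAT5 was quantified by AlphaLISA.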

T1 sequence (P29597 589-875 limits assumed): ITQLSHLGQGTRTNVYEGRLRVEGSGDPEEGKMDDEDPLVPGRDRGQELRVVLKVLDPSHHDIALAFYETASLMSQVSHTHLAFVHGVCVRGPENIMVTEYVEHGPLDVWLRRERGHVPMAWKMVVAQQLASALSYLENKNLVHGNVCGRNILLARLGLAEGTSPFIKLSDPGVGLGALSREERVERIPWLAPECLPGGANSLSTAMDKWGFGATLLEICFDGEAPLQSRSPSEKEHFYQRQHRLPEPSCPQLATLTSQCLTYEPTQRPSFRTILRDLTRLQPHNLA

| SMILES | Kd [1] | IC50 [2] |
| --- | --- | --- |
| CNc1ncc(C#Cc2ccc(OCC3CN(C(C)=O)C3)cc2)c2cc(NC(=O)C3CC3)ncc12 [Example 679, N-(5-((4-((1-acetylazetidin-3-yl)methoxy)phenyl)ethynyl)-8-(methylamino)-2,7-naphthyridin-3-yl)cyclopropanecarboxamide] | ≤ 100 nM | ≤ 500 nM |
| CNc1ncc(C#Cc2cc3ccccn3n2)c2cc(NC(=O)C3CC3)ncc12 [Example 680, N-(8-(methylamino)-5-(pyrazolo[1,5-a]pyridin-2-ylethynyl)-2,7-naphthyridin-3-yl)cyclopropanecarboxamide] | ≤ 100 nM | ≤ 500 nM |
| CNc1ncc(C#Cc2ccc3nnn(C(C)C)c3c2)c2cc(NC(=O)C3CC3)ncc12 [Example 681, N-(5-((1-isopropyl-1H-benzo[d][1,2,3]triazol-6-yl)ethynyl)-8-(methylimino)-2,7-naphthyridin-3-yl)cyclopropanecarboxamide] | ≤ 100 nM | ≤ 500 nM |
| CNc1ncc(C#Cc2ccc3nnn(CCOC)c3c2)c2cc(NC(=O)C3CC3)ncc12 [Example 682, N-(5-((1-(2-methoxyethyl)-1H-benzo[d][1,2,3]triazol-6-yl)ethynyl)-8-(methylamino)-2,7-naphthyridin-3-yl)cyclopropanecarboxamide] | ≤ 100 nM | ≤ 500 nM |
| CCn1nnc2ccc(C#Cc3cnc(NC)c4cnc(NC(=O)C5CC5)cc34)cc21 [Example 683, N-(5-((1-ethyl-1H-benzo[d][1,2,3]triazol-6-yl)ethynyl)-8-(methylamino)-2,7-naphthyridin-3-yl)cyclopropanecarboxamide] | ≤ 100 nM | ≤ 500 nM |
| CNc1ncc(C#Cc2ccc3nnn(CC(C)(C)O)c3c2)c2cc(NC(=O)C3CC3)ncc12 [Example 684, N-(5-((1-(2-hydroxy-2-methylpropyl)-1H-benzo[d][1,2,3]triazol-6-yl)ethynyl)-8-(methylamino)-2,7-naphthyridin-3-yl)cyclopropanecarboxamide] | ≤ 100 nM | ≤ 500 nM |
| CNc1ncc(C#Cc2cc3c(cc2F)nnn3C)c2cc(NC(=O)C3CC3)ncc12 [Example 685, N-(5-((5-fluoro-1-methyl-1H-benzo[d][1,2,3]triazol-6-yl)ethynyl)-8-(methylamino)-2,7-naphthyridin-3-yl)cyclopropanecarboxamide] | ≤ 100 nM | ≤ 500 nM |
| CNc1ncc(C#Cc2ccc3nnn(CCC#N)c3c2)c2cc(NC(=O)C3CC3)ncc12 [Example 686, N-(5-((1-(2-cyanoethyl)-1H-benzo[d][1,2,3]triazol-6-yl)ethynyl)-8-(methylamino)-2,7-naphthyridin-3-yl)cyclopropanecarboxamide] | ≤ 100 nM | ≤ 500 nM |
| CNc1ncc(C#Cc2ccc3nnn(C4CC4)c3c2)c2cc(NC(=O)C3CC3)ncc12 [Example 687, N-(5-((1-cyclopropyl-1H-benzo[d][1,2,3]triazol-6-yl)ethynyl)-8-(methylimino)-2,7-naphthyridin-3-yl)cyclopropanecarboxamide] | ≤ 100 nM | ≤ 500 nM |
| CNc1ncc(C#Cc2ccc3nnn(CCCOC)c3c2)c2cc(NC(=O)C3CC3)ncc12 [Example 688, N-(5-((1-(3-methoxypropyl)-1H-benzo[d][1,2,3]triazol-6-yl)ethynyl)-8-(methylamino)-2,7-naphthyridin-3-yl)cyclopropanecarboxamide] | ≤ 100 nM | ≤ 500 nM |
| CNc1ncc(C#Cc2cc3c(cn2)nnn3C)c2cc(NC(=O)C3CC3)ncc12 [Example 689, N-(5-((1-methyl-1H-[1,2,3]triazolo[4,5-c]pyridin-6-yl)ethynyl)-8-(methylamino)-2,7-naphthyridin-3-yl)cyclopropanecarboxamide] | ≤ 100 nM | ≤ 500 nM |
| CNc1ncc(C#Cc2ccc(O[C@@H]3CCOC3)cc2)c2cc(NC(=O)C3CC3)ncc12 [Example 690, (R)—N-(8-(methylamino)-5-((4-((tetrahydrofuran-3-yl)oxy)phenyl)ethynyl)-2,7-naphthyridin-3-yl)cyclopropanecarboxamide] | ≤ 100 nM | ≤ 500 nM |
| CNc1ncc(C#Cc2ccc(O[C@H]3CCOC3)cc2)c2cc(NC(=O)C3CC3)ncc12 [Example 691, (S)—N-(8-(methylamino)-5-((4-((tetrahydrofuran-3-yl)oxy)phenyl)ethynyl)-2,7-naphthyridin-3-yl)cyclopropanecarboxamide] | ≤ 100 nM | ≤ 500 nM |
| CNc1ncc(C#Cc2ccc3nc(COC)n(C)c3c2)c2cc(NC(=O)C3CC3)ncc12 [Example 692, N-(5-((2-(methoxymethyl)-1-methyl-1H-benzoimidazol-6-yl)ethynyl)-8-(methylamino)-2,7-naphthyridin-3-yl)cyclopropanecarboxamide] | ≤ 100 nM | ≤ 500 nM |
| CNc1ncc(C#Cc2ccc3ncn(CCCOC)c3c2)c2cc(NC(=O)C3CC3)ncc12 [Example 693, N-(5-((1-(3-methoxypropyl)-1H-benzo[d]imidazol-6-yl)ethynyl)-8-(methylamino)-2,7-naphthyridin-3-yl)cyclopropanecarboxamide] | ≤ 100 nM | ≤ 500 nM |
| CNc1ncc(C#Cc2ccc3ncn(CCCC#N)c3c2)c2cc(NC(=O)C3CC3)ncc12 [Example 694, N-(5-((1-(3-cyanopropyl)-1H-benzo[d]imidazol-6-yl)ethynyl)-8-(methylamino)-2,7-naphthyridin-3-yl)cyclopropanecarboxamide] | ≤ 100 nM | ≤ 500 nM |
| CNc1ncc(C#Cc2ccc3c(c2)ncn3CCCC#N)c2cc(NC(=O)C3CC3)ncc12 [Example 695, N-(5-((1-(3-cyanopropyl)-1H-benzo[d]imidazol-5-yl)ethynyl)-8-(methylamino)-2,7-naphthyridin-3-yl)cyclopropanecarboxamide] | ≤ 100 nM | ≤ 500 nM |
| CNc1ncc(C#Cc2ccc3c(c2)OCC(CO)O3)c2cc(NC(=O)C3CC3)ncc12 (centres unmarked) [Example 696, N-(5-((2-(hydroxymethyl)-2,3-dihydrobenzo[b][1,4]dioxin-6-yl)ethynyl)-8-(methylamino)-2,7-naphthyridin-3-yl)cyclopropanecarboxamide] | ≤ 100 nM | ≤ 500 nM |
| CNc1ncc(C#Cc2ccc3c(c2)OCC(COC)O3)c2cc(NC(=O)C3CC3)ncc12 (centres unmarked) [Example 697, N-(5-((2-(methoxymethyl)-2,3-dihydrobenzo[b][1,4]dioxin-6-yl)ethynyl)-8-(methylamino)-2,7-naphthyridin-3-yl)cyclopropanecarboxamide] | ≤ 100 nM | ≤ 500 nM |
| CNc1ncc(C#Cc2cc3c(cc2C)nnn3C)c2cc(NC(=O)C3CC3)ncc12 [Example 700, N-(5-((1,5-dimethyl-1H-benzo[d][1,2,3]triazol-6-yl)ethynyl)-8-(methylamino)-2,7-naphthyridin-3-yl)cyclopropanecarboxamide] | ≤ 100 nM | ≤ 500 nM |
| CNc1ncc(C#Cc2ccc(OCC3(C)COC3)cc2)c2cc(NC(=O)C3CC3)ncc12 [Example 701, N-(8-(methylamino)-5-((4-((3-methyloxetan-3-yl)methoxy)phenyl)ethynyl)-2,7-naphthyridin-3-yl)cyclopropanecarboxamide] | ≤ 100 nM | ≤ 500 nM |
| CNc1ncc(C#Cc2ccc(OCC3CCO3)cc2)c2cc(NC(=O)C3CC3)ncc12 (centres unmarked) [Example 702, N-(8-(methylamino)-5-((4-(oxetan-2-ylmethoxy)phenyl)ethynyl)-2,7-naphthyridin-3-yl)cyclopropanecarboxamide] | ≤ 100 nM | ≤ 500 nM |

— patent US20240025906A1 (NEURON23, INC., priority 2022, published 2024)
